Marks after values point to notes of the source that are not given here.
Columns and labels:
[1] = system: female Sprague-Dawley rats; assay: Cystometry tests on conscious fresh rats; format: in vivo, rat; details: effect maximum, mean of 3 micturition cycles
Description: Cystometry investigations were carried out on fresh female Sprague-Dawley rats according to the method of Ishizuka et. al. ((1997), Naunyn-Schmiedeberg's Arch. Pharmacol. 355: 787-793). Three days after implantation of bladder and venous catheters the animals were investigated in the conscious state while freely moving. The bladder catheter was connected to a pressure gauge and an injection pump. The animals were placed in metabolic cages that enable the volume of urine to be measured. Physiological saline solution was infused (10 ml/hour) into the emptied bladder and the bladder pressure and volume of urine were continuously recorded. After a stabilization phase a 20-minute phase was recorded that was characterized by normal, reproducible micturition cycles. The following parameters among others were measured: • threshold pressure (TP), bladder pressure immediately before micturition, • bladder capacity (BC), residual volume after prior micturition plus volume of infused solution during the filling phase, • intercontraction interval (ICI), the time interval between consecutive micturition.
An increase in the threshold pressure (TP) indicates an important therapeutic effect in one of the medical conditions suitable for treatment with the method of the invention. Also, the intercontraction interval (ICI) is an important parameter for measuring the physiological effectiveness of a substance in the treatment of urinary incontinence, as is the bladder capacity (BC). In this connection, on account of the widely differing causes of the symptoms of these disease patterns it is not necessary to influence positively all three parameters in order for a medicament to be effective.
After recording three reproducible micturition cycles to provide a baseline value, the test substances 24 (1.0; 3.0; 5.0 mg/kg), 25 (1.5 mg/kg) and 26 (3.0 mg/kg) in a vehicle comprising 0.9% NaCl were applied intravenously and the effect on the cystometric parameters was recorded at 90 to 120 minutes. In the effect maximum the mean value of 3 micturition cycles was determined and recorded as a percentage change compared to the baseline value (Table 1).

[2] = system: narcotized ventilated rats; assay: Cystometry investigations in narcotized fresh rats (suppression of rhythmic spontaneous bladder contractions); format: in vivo, rat; details: intravenous, cumulative, lowest dose at which contractions disappeared for the first time over a period of 10 minutes
Description: The cystometric investigation was carried out on fresh female rats according to the method of Kimura et al. (Kimura et al., 1996, Int. J. Urol. 3: 218-227). The abdomen of narcotized ventilated rats is opened and the ureter is ligated. The urine is drawn off from the kidneys. A catheter is inserted into the bladder and secured in place. […] The test substance is applied intravenously in a cumulative manner after stable starting values were reached. An effect on the bladder function is manifested by the suppression of the spontaneous contractions. The disappearance of the contractions over a period of 10 minutes serves as a parameter for their suppression.
With all the substances listed there was a measurable suppression of the spontaneous contractions in rats.

| Compound | Mean Value of Lowest Dose for Contraction Suppression [2] | BC Bladder Capacity, change compared to the baseline value ([1]; 3.0 mg/kg iv) | ICI Inter-Contraction Interval, change compared to the baseline value ([1]; 3.0 mg/kg iv) | TP Threshold Pressure, change compared to the baseline value ([1]; 3.0 mg/kg iv) | also measured |
| --- | --- | --- | --- | --- | --- |
| COc1cccc([C@@]2(O)C[C@H](O)CC[C@@H]2CN(C)C)c1.Cl [Compound 25, (+)-(1R,3R,6R)-6-dimethylaminomethyl-1-(3-methoxyphenyl)-cyclohexane-1,3-diol, hydrochloride] |  |  |  |  | BC Bladder Capacity, change compared to the baseline value ([1]; 1.5 mg/kg iv): −14.0%*; ICI Inter-Contraction Interval, change compared to the baseline value ([1]; 1.5 mg/kg iv): −9.0%; TP Threshold Pressure, change compared to the baseline value ([1]; 1.5 mg/kg iv): +62.0%* |
| C[C@H]1CC[C@H](CN(C)C)[C@@](O)(c2cccc(O)c2)C1.Cl [Compound 28, (+)-(1R,2R,5S)-3-(2-dimethylaminomethyl-1-hydroxy-5-methylcyclohexyl)-phenol, hydrochloride] | 16.7 (n = 3) mg/kg |  |  |  |  |
| (1RS,2RS,5RS)-3-(2-dimethylaminomethyl-1-hydroxy-5-trifluoromethylcyclohexyl)-phenol,hydrochloride [Compound 29] | 23.3 (n = 3) mg/kg |  |  |  |  |
| CN(C)C[C@H]1CC[C@@H](O)C[C@]1(O)c1cccc(O)c1.Cl (racemic) [Compound 26, (1RS,3RS,6RS)-6-dimethylaminomethyl-1-(3-hydroxyphenyl)-cyclohexane-1,3-diol, hydrochloride] |  | +29.0%*** | +27.0%* | +86.0%*** |  |
| COc1cccc([C@@]2(O)C[C@@H](O)CC[C@@H]2CN(C)C)c1.Cl (racemic) [Compound 27, (1RS,3SR,6RS)-6-dimethylaminomethyl-1-(3-methoxyphenyl)-cyclohexane-1,3-diol, hydrochloride] | 115 (n = 2) mg/kg |  |  |  |  |
| COc1cccc([C@@]2(O)C[C@H](O)CC[C@@H]2CN(C)C)c1.Cl (racemic) [Compound 24, (1RS,3RS,6RS)-6-dimethylaminomethyl-1-(3-methoxyphenyl)-cyclohexane-1,3-diol, hydrochloride] |  | −16.0%* | −16%* | +94.0%** | BC Bladder Capacity, change compared to the baseline value ([1]; 1.0 mg/kg iv): −8.0%; ICI Inter-Contraction Interval, change compared to the baseline value ([1]; 1.0 mg/kg iv): −15%**; TP Threshold Pressure, change compared to the baseline value ([1]; 1.0 mg/kg iv): +44.0%***; BC Bladder Capacity, change compared to the baseline value ([1]; 5.0 mg/kg iv): −26.0%; ICI Inter-Contraction Interval, change compared to the baseline value ([1]; 5.0 mg/kg iv): −21.2%; TP Threshold Pressure, change compared to the baseline value ([1]; 5.0 mg/kg iv): +69.0%* |
